# Experimental data as given in patent US20170348337A1, “MULTIFUNCTIONAL MEMBRANE-ACTIVE AMINOGLYCOSIDE-PEPTIDE CONJUGATES” (priority 2014, published 2017).
# System: bioluminescent Staphylococcus aureus
# Assay: in vivo murine implantation (implant infection) model
# Parameters: species or system lysEGFP mice
# Details: PMMA-coated titanium disks, subcutaneous; throughout 5 days; p<0.05
# Protocol: Methods: Survival surgery was performed in which circular orthopedic-grade titanium disks were implanted subcutaneously on the backs of 25 lysEGFP mice. Disks were coated in poly-methyl-methacrylate (PMMA) cement mixed with either Pentobra, Tobramycin, or no antibiotic (control). The disks were inoculated with 1×10^7 colony-forming units (CFU) of bioluminescent Staphylococcus aureus. Bacterial burden and neutrophil inflammation were followed via bioluminescent and fluorescent imaging, respectively, on post-operative days (POD) 0, 1, 3, and 5. Implants and surrounding tissue were subsequently removed and cultured. Statistical assessment of data was performed via ANOVA analysis.
compound,measurement,value
NC[C@H]1O[C@H](O[C@H]2[C@H](O)[C@@H](O[C@H]3O[C@H](CO)[C@@H](O)[C@H](N)[C@H]3O)[C@H](N)C[C@@H]2N)[C@H](N)C[C@@H]1O [tobramycin],bacterial bioluminescent signal compared to control group,significantly lower bacterial bioluminescent signal
